Reference: patent publication US20060275365A1, “Immediate-release and high-drug-load pharmaceutical formulations of micronised (4-chlorophenyl) [4-(4-pyridylmethyl)phthalazin-1-yl] and salts thereof” (priority 2005, published 2006)

Experiments:
VEGFR kinases = conditions: not dependent on a specific ligand; cited from earlier work
[1] = Particle size volume distribution by laser diffraction (Sympatec Helos); format: physicochemical; conditions: spherical particles presumed
Text: When used herein, the term “micronised” is intended to mean that the particle size distribution is so that at least 90% of the particles have a particle diameter of less than 30 μm (calculated from the volume distribution curve under the presumption of spherical particles), i.e. a d90 value of at the most 30 μm. It is well-known to the skilled person that parameters used to describe a given particle size distribution may vary considerably dependent on the specific equipment and settings used. Therefore, it is important to note that whenever the terms “particle size distribution”, “particle diameter”, “d50”, “d90”, “d95”, “d99”, etc. are used herein it should be understood that the specific values or ranges used in connection therewith are always meant to be determined from the volume distribution curve under the presumption of spherical particles using laser diffraction and the conditions set forth in the section entitled “Determination of particle size distribution” herein.
Determination of the particle size volume distribution of pynasunate was performed by laser diffraction using the following equipment and settings: […]

In the case of `Clc1ccc(Nc2nnc(Cc3ccncc3)c3ccccc23)cc1` [(4-chlorophenyl)[4-(4-pyridylmethyl)-phthalazin-1-yl]], the “inhibition of VEGFR kinases” value (VEGFR kinases) is given as “inhibitor of all three VEGFR kinases”.
For `Clc1ccc(Nc2nnc(Cc3ccncc3)c3ccccc23)cc1` [pynasunate, (4-chlorophenyl)[4-(4-pyridylmethyl)-phthalazin-1-yl]ammonium hydrogen succinate], the “d50 particle size diameter” value [1] was 6 μm and the “d90 particle size diameter” value [1] was 15 μm.
